Test results published in ChEMBL document CHEMBL1201862, “PubChem BioAssay data set” (2004).
The source made the active and inactive calls.

Experiments:
[1] = molecular target: T1, Sentrin-specific protease 1 (Homo sapiens, UniProt Q9P0U3); assay: potency of human SENP1 inhibitors, dose response, biochemical, kinetic FRET (AID 651697); assay type: functional; conditions: read-out: IC50_Mean
T1 sequence (Q9P0U3 whole entry): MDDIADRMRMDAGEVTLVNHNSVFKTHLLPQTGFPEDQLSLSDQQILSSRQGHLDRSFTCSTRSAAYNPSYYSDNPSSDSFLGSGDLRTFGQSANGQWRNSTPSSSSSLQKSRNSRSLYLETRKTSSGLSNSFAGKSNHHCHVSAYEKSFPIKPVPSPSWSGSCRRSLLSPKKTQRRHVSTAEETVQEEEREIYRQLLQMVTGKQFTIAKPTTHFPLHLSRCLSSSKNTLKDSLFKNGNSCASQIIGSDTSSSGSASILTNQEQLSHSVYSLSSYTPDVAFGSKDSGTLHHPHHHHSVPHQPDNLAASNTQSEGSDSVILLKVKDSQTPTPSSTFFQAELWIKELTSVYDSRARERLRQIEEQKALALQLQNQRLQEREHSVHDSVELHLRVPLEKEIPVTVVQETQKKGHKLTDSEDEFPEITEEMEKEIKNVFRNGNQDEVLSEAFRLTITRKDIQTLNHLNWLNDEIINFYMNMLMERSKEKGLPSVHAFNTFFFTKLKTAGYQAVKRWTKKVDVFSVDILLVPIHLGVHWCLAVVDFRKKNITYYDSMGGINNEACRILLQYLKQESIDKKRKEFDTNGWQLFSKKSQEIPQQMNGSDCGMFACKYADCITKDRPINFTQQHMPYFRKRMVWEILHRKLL

[2] = molecular target: T1, Sentrin-specific protease 1; assay: Dose response confirmation of small molecule inhibitors of the catalytic domain of the SUMO protease, SENP1 in a FRET assay.; assay type: functional; conditions: read-out: IC50_Mean
[3] = molecular target: T2, High affinity choline transporter 1 (Homo sapiens, UniProt Q9GZV3); assay: CHT inhibitors, dose response, cell-based, 10-point CRC, membrane potential dye (AID 588401); assay type: functional;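 also: membrane potential dye fluorescence of choline-evoked depolarization via CHT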
T2 sequence (Q9GZV3 whole entry): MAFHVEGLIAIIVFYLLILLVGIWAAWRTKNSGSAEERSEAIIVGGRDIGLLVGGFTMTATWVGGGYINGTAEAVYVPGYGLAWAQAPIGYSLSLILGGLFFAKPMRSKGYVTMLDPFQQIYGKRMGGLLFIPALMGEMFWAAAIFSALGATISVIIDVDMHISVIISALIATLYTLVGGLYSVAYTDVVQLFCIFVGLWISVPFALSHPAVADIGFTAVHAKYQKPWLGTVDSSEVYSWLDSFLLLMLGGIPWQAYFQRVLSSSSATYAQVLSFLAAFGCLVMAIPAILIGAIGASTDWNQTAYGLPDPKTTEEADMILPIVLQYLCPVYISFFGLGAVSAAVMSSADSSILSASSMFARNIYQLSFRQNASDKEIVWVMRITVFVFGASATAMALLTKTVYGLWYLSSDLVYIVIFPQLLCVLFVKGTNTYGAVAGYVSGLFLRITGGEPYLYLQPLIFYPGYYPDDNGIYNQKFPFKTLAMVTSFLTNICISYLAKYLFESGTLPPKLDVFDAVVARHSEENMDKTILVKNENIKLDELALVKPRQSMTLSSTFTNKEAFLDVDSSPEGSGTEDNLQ

[4] = molecular target: T2, High affinity choline transporter 1; assay: CHT inhibitors, dose response, cell-based, 5-point CRC, membrane potential dye (AID 504840); assay type: functional
[5] = molecular target: T3, Heat shock factor protein 1 (Mus musculus, UniProt P38532); assay: inhibition of MG132-induced HSE-luciferase signal, confirmation, cell-based, NIH3T3, luminescence, dose retest (AID 2382); assay type: functional;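 also: NIH3T3 fibroblasts with HSF1-driven luciferase reporter stressed by proteasome inhibitor MG132; luminescence from HSF1-driven luciferase expression after 8 hours of MG132 stress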
T3 sequence (P38532 whole entry): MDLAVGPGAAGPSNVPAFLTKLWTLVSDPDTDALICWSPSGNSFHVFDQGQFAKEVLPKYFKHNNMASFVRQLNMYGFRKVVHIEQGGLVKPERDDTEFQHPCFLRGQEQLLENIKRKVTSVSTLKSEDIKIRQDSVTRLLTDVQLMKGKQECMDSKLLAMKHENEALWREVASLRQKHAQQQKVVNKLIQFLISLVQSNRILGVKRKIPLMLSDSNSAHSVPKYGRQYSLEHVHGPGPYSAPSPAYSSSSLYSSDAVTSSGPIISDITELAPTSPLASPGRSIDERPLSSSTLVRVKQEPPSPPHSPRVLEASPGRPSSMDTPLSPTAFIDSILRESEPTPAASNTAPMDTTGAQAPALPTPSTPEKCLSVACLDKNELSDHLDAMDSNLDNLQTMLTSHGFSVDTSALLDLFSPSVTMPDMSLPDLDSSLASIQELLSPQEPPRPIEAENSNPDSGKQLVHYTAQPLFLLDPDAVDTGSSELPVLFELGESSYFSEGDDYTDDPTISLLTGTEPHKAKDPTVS

Nonstructural protein 1 = Nonstructural protein 1 (Influenza A virus, UniProt Q194T2); assay type: functional, Influenza A virus (A/California/07/2009(H1N1))
[6] = AlphaScreen signal interference compounds, dose response, artefact control for ARNT-TACC3 interaction inhibitor project, biochemical, luminescence, cherry-pick (AID 651705); assay type: functional;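 also: AlphaScreen bead proximity signal that flags compounds interfering with the detection technology; potency reflects signal decrease which marks the compound as an assay artifact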
Protein Wnt-3a = Protein Wnt-3a (Mus musculus, UniProt P27467); assay: Wnt3a-driven reporter signaling inhibition, dose response, selectivity assay for Gli-SUFU antagonist project, Wnt-LIGHT cells, luminescence (AID 651570); assay type: functional; conditions: read-out: IC50_Mean;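 also: Wnt-LIGHT reporter cells stimulated with conditioned medium from Wnt3a-producing cells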
[7] = molecular target: T4, Probable nicotinate-nucleotide adenylyltransferase (Staphylococcus aureus (strain N315), UniProt P65502); assay type: functional, Staphylococcus aureus subsp. aureus N315; conditions: read-out: IC50_Mean;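 as to IC50 Mean: confirmatory dose-response retesting of NadD inhibitor hits first found in an ultra-high-throughput screen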
[8] = Luminescence Cell-Based Dose Response HTS to Identify Activators of Luciferase Translation or Activity in H4 […] Cells. [Related pubchem assays: 1829 (Project Summary), 1814 (Primary HTS)]; assay type: functional
[9] = molecular target: T4, Probable nicotinate-nucleotide adenylyltransferase; assay type: functional, Staphylococcus aureus subsp. aureus N315
H4 = assay: Luminescence Cell-Based Dose Response HTS to Identify Activators of 5'UTR Stem-Loop Driven Prion Protein mRNA Translation in H4 Neuroglioblastoma Cells. [Related pubchem assays: 1829 (Project Summary), 1814 (Primary HTS)]; assay type: functional; conditions: Homo sapiens
[10] = Luminescence Cell-Based Dose Confirmation HTS to Identify Activators of 5'UTR Stem-Loop Driven Alpha-Synuclein mRNA Translation in H4 Neuroglioblastoma Cells. [Related pubchem assays: 1829 (Project Summary), 1814 (Primary HTS)]; assay type: functional
HEK293 = assay: inhibitors of LMP1-driven NF-kB reporter, dose response, cell-based, HEK293, luciferase, cherry-pick (AID 588343); assay type: functional; conditions: Homo sapiens
[11] = control 3'UTR Renilla luciferase suppression, dose response, counter-screen for Shn3 inhibitor project, cell-based, Clone20-Shn3RL, cherry-picked (AID 624133); assay type: functional
INS1 = assay: beta cell apoptosis inhibitors, cytokine rescue, dose response, luminescence, retest (AID 449756); assay type: functional, cell-based; conditions: Rattus norvegicus;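 also: cell death triggered by IL-1 beta plus TNF-alpha plus IFN-gamma mixture; protective hits raise ATP signal compared with cytokine alone wells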
[12] = Shn3 3'UTR reporter inhibitors, dose response, cell-based, Clone20 osteoblasts, firefly luciferase, cherry-picked (AID 624132); assay type: functional;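 also: firefly luciferase luminescence from reporter carrying the Shn3 3'UTR in osteoblasts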
[13] = HepG2 cell cytotoxicity, dose response, cytotoxicity control for Shn3 inhibitor project, CellTiter-Glo, cherry-picked (AID 624134); assay type: functional, cell-based
[14] = molecular target: 26S proteasome non-ATPase regulatory subunit 14 (Homo sapiens, UniProt O00487); assay: inhibition of proteasome subunit RPN11 – biochemical, fluorescence polarization, uHTS hits, confirmation (AID 602368); assay type: functional
[15] = molecular target: 72 kDa type IV collagenase (Homo sapiens, UniProt P08253); assay: Dose Response validation of uHTS RPN11 inhibitor hits using a MMP-2 Fluorescence assay.; assay type: functional
Prothrombin = Prothrombin (Bos taurus, UniProt P00735); assay: thrombin inhibition, dose response, biochemical, fluorescence polarization, uHTS hits (AID 602369); assay type: functional
Melanocortin receptor 4 = Melanocortin receptor 4 (Homo sapiens, UniProt P32245); assay type: functional, cell-based;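 also: Cell-based assay with luminescence read-out, confirmatory dose-response testing for agonist activity of biased ligands at MC4R; human U2OS cells with tagged receptor and beta-arrestin; potency of agonists that increase receptor coupling to beta-arrestin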
Melanocortin receptor 4, sequence (P32245 whole entry): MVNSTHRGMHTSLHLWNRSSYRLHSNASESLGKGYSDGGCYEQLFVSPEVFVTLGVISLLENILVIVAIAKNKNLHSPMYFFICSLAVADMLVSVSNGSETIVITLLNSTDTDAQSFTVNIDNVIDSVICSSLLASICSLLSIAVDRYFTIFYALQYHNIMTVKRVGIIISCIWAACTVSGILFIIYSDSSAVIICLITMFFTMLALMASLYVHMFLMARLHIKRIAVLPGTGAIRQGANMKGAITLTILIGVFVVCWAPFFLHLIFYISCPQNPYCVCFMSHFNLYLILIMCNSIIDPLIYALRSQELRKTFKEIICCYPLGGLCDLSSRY

T4 sequence (P65502 whole entry): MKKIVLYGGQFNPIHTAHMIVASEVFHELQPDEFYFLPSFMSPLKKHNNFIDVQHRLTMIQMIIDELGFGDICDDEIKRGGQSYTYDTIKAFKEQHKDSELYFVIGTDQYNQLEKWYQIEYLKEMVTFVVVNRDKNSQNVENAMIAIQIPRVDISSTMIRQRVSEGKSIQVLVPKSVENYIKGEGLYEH
26S proteasome non-ATPase regulatory subunit 14, sequence (O00487 whole entry): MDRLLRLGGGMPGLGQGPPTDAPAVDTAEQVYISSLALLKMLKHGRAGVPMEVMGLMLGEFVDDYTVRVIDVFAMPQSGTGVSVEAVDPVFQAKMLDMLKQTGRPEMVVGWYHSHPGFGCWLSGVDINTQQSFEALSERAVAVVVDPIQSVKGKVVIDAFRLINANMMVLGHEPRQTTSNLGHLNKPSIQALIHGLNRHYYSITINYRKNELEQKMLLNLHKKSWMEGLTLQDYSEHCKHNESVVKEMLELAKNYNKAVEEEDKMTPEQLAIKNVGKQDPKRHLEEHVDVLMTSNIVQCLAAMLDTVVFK
72 kDa type IV collagenase, sequence (P08253 whole entry): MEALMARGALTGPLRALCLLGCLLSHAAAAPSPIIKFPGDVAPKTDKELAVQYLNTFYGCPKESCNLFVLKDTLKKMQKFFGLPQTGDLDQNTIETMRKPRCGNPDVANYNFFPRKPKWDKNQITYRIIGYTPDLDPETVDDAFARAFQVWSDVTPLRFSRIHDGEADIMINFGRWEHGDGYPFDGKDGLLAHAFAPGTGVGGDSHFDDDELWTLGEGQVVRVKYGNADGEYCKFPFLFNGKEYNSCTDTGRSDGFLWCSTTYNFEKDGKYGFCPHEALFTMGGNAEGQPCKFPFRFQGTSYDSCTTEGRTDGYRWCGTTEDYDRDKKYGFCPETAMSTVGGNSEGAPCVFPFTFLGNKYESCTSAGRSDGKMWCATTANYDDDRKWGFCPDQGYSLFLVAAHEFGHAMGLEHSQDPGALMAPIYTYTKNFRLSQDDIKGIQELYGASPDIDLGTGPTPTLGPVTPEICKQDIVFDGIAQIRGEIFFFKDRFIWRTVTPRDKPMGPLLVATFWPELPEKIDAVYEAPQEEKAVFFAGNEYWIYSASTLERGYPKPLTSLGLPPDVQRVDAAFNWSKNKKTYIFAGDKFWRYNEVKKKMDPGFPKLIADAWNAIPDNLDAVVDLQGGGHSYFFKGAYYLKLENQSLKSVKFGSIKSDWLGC
Nonstructural protein 1, sequence (Q194T2 whole entry): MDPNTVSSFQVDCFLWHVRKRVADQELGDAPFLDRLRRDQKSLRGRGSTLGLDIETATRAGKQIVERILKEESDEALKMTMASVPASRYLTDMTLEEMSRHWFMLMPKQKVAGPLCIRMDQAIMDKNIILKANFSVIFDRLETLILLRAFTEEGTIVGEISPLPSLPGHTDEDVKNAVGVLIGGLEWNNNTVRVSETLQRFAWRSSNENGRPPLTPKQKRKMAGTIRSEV
Protein Wnt-3a, sequence (P27467 whole entry): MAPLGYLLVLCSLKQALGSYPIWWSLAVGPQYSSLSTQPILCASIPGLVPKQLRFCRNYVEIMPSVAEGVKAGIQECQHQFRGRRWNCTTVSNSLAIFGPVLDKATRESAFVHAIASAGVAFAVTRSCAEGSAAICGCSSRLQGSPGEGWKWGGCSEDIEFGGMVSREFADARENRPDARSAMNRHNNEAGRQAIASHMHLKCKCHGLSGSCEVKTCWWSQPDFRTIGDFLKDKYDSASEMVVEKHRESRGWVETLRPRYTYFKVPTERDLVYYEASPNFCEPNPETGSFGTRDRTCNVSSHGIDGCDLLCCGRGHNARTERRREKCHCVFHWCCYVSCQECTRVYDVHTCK

Question: With `Nc1nc(N)c2sc3nc(C(F)(F)F)cc(C(F)(F)F)c3c2n1` as the compound, how does the IC50 [1] read?
Answer: 30 µM (inactive)

Question: And the IC50 [2]?
Answer: 16.7 µM (active)

Question: Which IC50 [3] does the source give for `CCCn1c2ccccc2c2cnn(CC(=O)NCCCN3CCN(c4ccccc4)CC3)c(=O)c21` here?
Answer: 2.84 µM (active)

Question: What about the IC50 [4] of the same compound?
Answer: 2.49 µM (active)

Question: Which EC50 [5] does the source give for `O=C(NCCCn1ccnc1)C(=O)NCC1OCCN1S(=O)(=O)c1cc(F)ccc1F` (stereo not given) here?
Answer: 128 µM (active)

Question: What about the IC50 (Nonstructural protein 1) of the same compound?
Answer: 12.7 µM (active)

Question: What about the AC50 [6] of the same compound?
Answer: 84.5 µM (active)

Question: Which IC50 (Protein Wnt-3a) does the source give for `Cn1c(=O)c2c(nc(NCc3ccco3)n2Cc2ccc(Cl)cc2Cl)n(C)c1=O` here?
Answer: 1.94 µM (active)

Question: For `Cc1ccc(Nc2nc(Nc3ccc(C)cc3)nc(SC3=NCCS3)n2)cc1`, which IC50 [7] is on record?
Answer: 53.6 µM (active)

Question: And the EC50 [8]?
Answer: > 120 µM (not active)

Question: And the IC50 [9]?
Answer: 28.6 µM (active)

Question: And the EC50 (H4)?
Answer: 17.6 µM (active)

Question: And the EC50 [10]?
Answer: > 120 µM (not active)

Question: With `CCOC(=O)N1CCC(NC(=O)C2CCCN(Cc3nc(-c4cccc(Cl)c4)oc3C)C2)CC1` (stereo not given) as the compound, how does the AC50 (HEK293) read?
Answer: 2.51 µM (active)

Question: What about the AC50 [11] of the same compound?
Answer: 1.81 µM (active)

Question: What about the AC50 (INS1) of the same compound?
Answer: 3.71 µM (active)

Question: What about the IC50 [4] of the same compound?
Answer: 6.92 µM (active)

Question: What about the AC50 [12] of the same compound?
Answer: 9.5 µM (active)

Question: What about the AC50 [13] of the same compound?
Answer: 55.4 µM (active)

Question: Which results are given for `C[C@]12CCC[C@H](O1)c1c(cc3c(c1O)C(=O)c1c(O)cc(O)cc1C3=O)O2`?
Answer: IC50 [14]: 2.94 µM (active); IC50 [15]: 78.4 µM (active); IC50 (Prothrombin): 4.81 µM (active)

Question: With `O=C1OC(c2ccccc2)(c2cc(Br)ccc2O)c2ccccc21` (stereo not given) as the compound, how does the EC50 (Melanocortin receptor 4) read?
Answer: > 89.2 µM (inactive)

Question: Which IC50 [3] does the source give for `CCc1cccc(CC)c1NC(=O)c1cccc(S(=O)(=O)N2CCN(C)CC2)c1` here?
Answer: 8.43 µM (active)

Question: What about the IC50 [4] of the same compound?
Answer: 7.52 µM (active)
